Patent publication US12491170B2, “Stable treprostinil prodrugs” (United Therapeutics Corporation, priority 2020, dated 2025)
Like-named read-outs stand apart in the source and are kept apart here. Blank lines part the entries; values can stand above or below the molecule they belong to.

What was measured:
[1] = Stability in liver microsomes, human
[2] = Stability in cryopreserved hepatocytes, rat
[3] = Stability in liver microsomes, dog
[4] = target: prostaglandin E2 (PGE2) receptor 2 (EP2) (Homo sapiens, UniProt P43116); assay: EP2 receptor cAMP agonist assay (HEK293T cells); format: cell-based; settings: for EP2 Relative to Tre: Table 22, relative to treprostinil EC50 values, * partial agonists or ambiguous dose-response curves
Chain of prostaglandin E2 (PGE2) receptor 2 (EP2) (P43116 whole entry): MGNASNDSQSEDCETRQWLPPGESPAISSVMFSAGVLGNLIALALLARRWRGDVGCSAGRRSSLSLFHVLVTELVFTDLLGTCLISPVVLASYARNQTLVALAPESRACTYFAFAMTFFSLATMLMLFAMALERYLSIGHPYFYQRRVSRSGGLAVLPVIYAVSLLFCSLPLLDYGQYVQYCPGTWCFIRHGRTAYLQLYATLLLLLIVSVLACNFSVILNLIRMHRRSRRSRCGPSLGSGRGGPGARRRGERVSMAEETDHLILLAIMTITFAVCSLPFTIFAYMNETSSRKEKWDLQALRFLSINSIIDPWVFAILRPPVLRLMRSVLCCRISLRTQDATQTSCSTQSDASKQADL
Experimental: Cyclic AMP assay kit: Multiscreen™ TR-FRET cAMP 1.0 No Wash Assay Kit (Multispan, Inc.)
Cells were thawed from frozen cells and resuspended in assay buffer at desired concentrations. cAMP or Calcium assays were performed according to the manufacturer's protocol using Multiscreen™ TR-FRET cAMP 1.0 No Wash Assay Kit or Multiscreen™ Calcium 1.0 No Wash Kit.
Gas Cyclic AMP (cAMP) Assay: In agonist mode testing, cells were seeded in a 384-well plate at an appropriate density and then were treated with compounds and incubated at 37° C. for 20 minutes. The reaction was terminated by […] trFluor™ Eu-labeled cAMP and trFluor™ 650-labeled anti-cAMP antibody in lysis buffer. […] All testing wells contained 0.1% DMSO in the final concentrations.
Data in graphs are represented in Mean±SD. Dose-dependent responses were fitted with sigmoidal dose-response curves allowing variable slopes using GraphPad Prism version 6 (Graphpad Prism).
These studies used cell lines overexpressing either human IP, EP2 or DP1, or EP1 receptors, and following incubation with varying concentrations of compounds, cAMP levels were measured using Fluorescence Resonance Energy Transfer (FRET).

[5] = Stability in liver microsomes, rat
[6] = Stability in cryopreserved hepatocytes, dog
[7] = dog
[8] = Hydrolysis of prodrugs to treprostinil at pH 6, 7, 8 and 40 C; format: physicochemical
Description: Tables 24, 25 and 26 present data for hydrolysis of selected treprostinil prodrugs at pH 6, 7 and 8, respectively, and 40 C.

- Treprostinil Concentration 0 min [1]: 0.883 µM
- Treprostinil Concentration 15 min [1]: 0.681 µM
- Treprostinil Concentration 30 min [1]: 0.602 µM
- Treprostinil Concentration 60 min [1]: 0.513 µM
- Treprostinil Concentration 120 min [1]: 0.341 µM
- AUC Mono (treprostinil formed) ([1]; human): 32.6 µmol·min/L
- Treprostinil Concentration 0 min [2]: 0.00292 µM
- Treprostinil Concentration 120 min [2]: 0.503 µM
- Mono AUC (treprostinil formed) ([2]; rat): 41.4 µmol·min/L
- Treprostinil Concentration 0 min [3]: 0.964 µM
- Treprostinil Concentration 15 min [3]: 0.917 µM
- Treprostinil Concentration 30 min [3]: 0.899 µM
- Treprostinil Concentration 60 min [3]: 0.932 µM
- Treprostinil Concentration 120 min [3]: 0.873 µM
- AUC Mono (treprostinil formed) ([3]; dog): 54.7 µmol·min/L
- EP2 Relative to Tre [4]: 461x
- Treprostinil Concentration 0 min [5]: 0.035 µM
- Treprostinil Concentration 15 min [5]: 0.0741 µM
- Treprostinil Concentration 30 min [5]: 0.111 µM
- Treprostinil Concentration 60 min [5]: 0.145 µM
- Treprostinil Concentration 120 min [5]: 0.206 µM
- AUC Mono (treprostinil formed) ([5]; rat): 8.0 µmol·min/L
- Treprostinil Concentration 15 min [6]: 0.628 µM
- Treprostinil Concentration 120 min [6]: 0.4 µM
- Mono AUC (treprostinil formed) ([6]; dog): 54.0 µmol·min/L
Compound: CCCCCC(CCC1C(O)CC2Cc3c(cccc3OCC(=O)O)CC21)OC(C)=O (stereo not shown) [Prodrug XLIII]

- AUC ([1]; human): 10.56 µmol·min/L
- AUC Mono (treprostinil formed) ([1]; human): 10.6 µmol·min/L
- CLint ([1]; human, microsomes): > 0.139 mL/min/mg protein
- Half-life ([1]; human, microsomes): < 10 min
- CLint, calculated (in parentheses) ([1]; microsomes): 0.189 mL/min/mg protein
- Half-life, calculated (in parentheses) ([1]; microsomes): 7.32 min
- CLint, calculated (in parentheses) ([2]; hepatocytes): 0.295 mL/min/mg protein
- Half-life, calculated (in parentheses) ([2]; hepatocytes): 1.56 min
- AUC ([2]; rat): 39.77 µmol·min/L
- Mono AUC (treprostinil formed) ([2]; rat): 39.8 µmol·min/L
- CLint ([2]; rat, hepatocytes): > 0.0308 mL/min/mg protein
- Half-life ([2]; rat, hepatocytes): < 15 min
- AUC Mono (treprostinil formed) ([3]; dog): 56.2 µmol·min/L
- CLint ([3]; dog, microsomes): > 0.139 mL/min/mg protein
- Half-life ([3]; dog, microsomes): < 10 min
- CLint, calculated (in parentheses) ([3]; microsomes): 0.454 mL/min/mg protein
- Half-life, calculated (in parentheses) ([3]; microsomes): 3.05 min
- Activity at the EP2 receptor compared to treprostinil ([4]; summary of findings): inactive
- CLint, calculated (in parentheses) ([5]; microsomes): 0.575 mL/min/mg protein
- Half-life, calculated (in parentheses) ([5]; microsomes): 2.41 min
- AUC Mono (treprostinil formed) ([5]; rat): 33.5 µmol·min/L
- CLint ([5]; rat, microsomes): > 0.139 mL/min/mg protein
- Half-life ([5]; rat, microsomes): < 10 min
- AUC ([6]; dog): 41.47 µmol·min/L
- Mono AUC (treprostinil formed) ([6]; dog): 41.5 µmol·min/L
- CLint ([6]; dog, hepatocytes): > 0.0308 mL/min/mg protein
- Half-life ([6]; dog, hepatocytes): < 15 min
- CLint, calculated (in parentheses) ([6]; hepatocytes): 0.187 mL/min/mg protein
- Half-life, calculated (in parentheses) ([6]; hepatocytes): 2.47 min
- AUC [7]: 56.21 µmol·min/L
- Hydrolysis to treprostinil, % Area, t = 1 week ([8]; pH 6, 40 C.): 0.00 % Area
- Hydrolysis to treprostinil, % Area, t = 2 weeks ([8]; pH 6, 40 C.): 0.00 % Area
- Hydrolysis to treprostinil, % Area, t = 3 weeks ([8]; pH 6, 40 C.): 0.00 % Area
- Hydrolysis to treprostinil, % Area, t = 1 week ([8]; pH 7, 40 C.): 0.00 % Area
- Hydrolysis to treprostinil, % Area, t = 2 weeks ([8]; pH 7, 40 C.): 0.00 % Area
- Hydrolysis to treprostinil, % Area, t = 3 weeks ([8]; pH 7, 40 C.): 0.00 % Area
- Hydrolysis to treprostinil, % Area, t = 1 week ([8]; pH 8, 40 C.): 0.00 % Area
- Hydrolysis to treprostinil, % Area, t = 2 weeks ([8]; pH 8, 40 C.): 0.00 % Area
- Hydrolysis to treprostinil, % Area, t = 3 weeks ([8]; pH 8, 40 C.): 0.38 % Area
Compound: CCCCCC(CCC1C(OC(=O)OC)CC2Cc3c(cccc3OCC(=O)O)CC21)OC(=O)OC (stereo not shown) [Prodrug LXXI, treprostinil dicarbonate]

- Treprostinil Concentration 0 min [1]: 1.17 µM
- Treprostinil Concentration 15 min [1]: 1.01 µM
- Treprostinil Concentration 30 min [1]: 0.837 µM
- Treprostinil Concentration 60 min [1]: 0.736 µM
- Treprostinil Concentration 120 min [1]: 0.389 µM
- AUC Mono (treprostinil formed) ([1]; human): 44.9 µmol·min/L
- Treprostinil Concentration 0 min [2]: 0.0159 µM
- Treprostinil Concentration 120 min [2]: 0.391 µM
- Mono AUC (treprostinil formed) ([2]; rat): 49.3 µmol·min/L
- Treprostinil Concentration 0 min [3]: 0.971 µM
- Treprostinil Concentration 15 min [3]: 0.961 µM
- Treprostinil Concentration 30 min [3]: 0.934 µM
- Treprostinil Concentration 60 min [3]: 0.915 µM
- Treprostinil Concentration 120 min [3]: 0.743 µM
- AUC Mono (treprostinil formed) ([3]; dog): 53.3 µmol·min/L
- EP2 Relative to Tre [4]: 50x
- Treprostinil Concentration 0 min [5]: 0.26 µM
- Treprostinil Concentration 15 min [5]: 0.43 µM
- Treprostinil Concentration 30 min [5]: 0.525 µM
- Treprostinil Concentration 60 min [5]: 0.586 µM
- Treprostinil Concentration 120 min [5]: 0.553 µM
- AUC Mono (treprostinil formed) ([5]; rat): 30.9 µmol·min/L
- Treprostinil Concentration 15 min [6]: 0.781 µM
- Treprostinil Concentration 120 min [6]: 0.53 µM
- Mono AUC (treprostinil formed) ([6]; dog): 71.2 µmol·min/L
Compound: CCCCCC(CCC1C(O)CC2Cc3c(cccc3OCC(=O)O)CC21)OC(=O)CC (stereo not shown) [Prodrug LV]

- Treprostinil Concentration 0 min [1]: 0.02 µM
- Treprostinil Concentration 15 min [1]: 0.038 µM
- Treprostinil Concentration 30 min [1]: 0.038 µM
- Treprostinil Concentration 60 min [1]: 0.03 µM
- Treprostinil Concentration 120 min [1]: 0.061 µM
- AUC Mono (treprostinil formed) ([1]; human): 2.4 µmol·min/L
- Treprostinil Concentration 0 min [2]: 0.128 µM
- Treprostinil Concentration 120 min [2]: 0.53 µM
- Mono AUC (treprostinil formed) ([2]; rat): 66.9 µmol·min/L
- Treprostinil Concentration 0 min [3]: 0.21 µM
- Treprostinil Concentration 15 min [3]: 0.32 µM
- Treprostinil Concentration 30 min [3]: 0.43 µM
- Treprostinil Concentration 60 min [3]: 0.48 µM
- Treprostinil Concentration 120 min [3]: 0.75 µM
- AUC Mono (treprostinil formed) ([3]; dog): 29.4 µmol·min/L
- EP2 Relative to Tre [4]: 4x
- EP2 Relative to Tre ([4]; listed as Prodrug VI repeat): 9x
- Treprostinil Concentration 0 min [5]: 0.27 µM
- Treprostinil Concentration 15 min [5]: 0.39 µM
- Treprostinil Concentration 30 min [5]: 0.46 µM
- Treprostinil Concentration 60 min [5]: 0.53 µM
- Treprostinil Concentration 120 min [5]: 0.73 µM
- AUC Mono (treprostinil formed) ([5]; rat): 31.4 µmol·min/L
- Treprostinil Concentration 15 min [6]: 0.581 µM
- Treprostinil Concentration 120 min [6]: 0.548 µM
- Mono AUC (treprostinil formed) ([6]; dog): 62.9 µmol·min/L
Compound: CCCCCC(CCC1C(O)CC2Cc3c(cccc3OCC(=O)O)CC21)OP(=O)(O)O (stereo not shown) [Prodrug VI]
